The values that follow come from ChEMBL document CHEMBL1123367, “Furanose-pyranose isomerization of reduced pyrimidine and cyclic urea ribosides” (J Med Chem, 1986).

A short description of series [1]: Half-life of the initial pseudo-first-order isomerization at apparent pH 2.0 and 25 degree celsius. The following applies: read-out: T1/2 app (converted). It is filed as ADME.
Series [2] can be described thus: Half-life of the initial pseudo-first-order isomerization at apparent pH 1.0 and 37 degree celsius. It is filed as ADME. The following applies: read-out: T1/2 app (converted).
A short description of series [3]: Half-life of the initial pseudo-first-order isomerization at apparent pH 2.8 and 37 degree celsius. Type of series: ADME. The following applies: read-out: T1/2 app (converted).
Series [4] in a line: Half-life of the initial pseudo-first-order isomerization at apparent pH 1.0 and 25 degree celsius. It is filed as ADME. The following applies: read-out: T1/2 app.
The target of a further series is Cytidine deaminase (Mus musculus, UniProt P56389). The series can be described thus: Compound was tested […] for its ability to inhibit mouse kidney cytidine deaminase (CDA).
Chain of Cytidine deaminase (P56389 whole entry): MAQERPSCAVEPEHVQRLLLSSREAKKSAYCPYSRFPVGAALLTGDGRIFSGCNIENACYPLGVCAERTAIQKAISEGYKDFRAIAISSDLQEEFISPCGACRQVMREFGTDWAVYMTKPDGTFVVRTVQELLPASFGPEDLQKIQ

For `O=C1NCCCN1[C@@H]1O[C@H](CO)[C@@H](O)[C@H]1O`, the half-life in series [1] is 134 min; in series [2], 37.8 min; in series [3], 312 min; in series [4], less than 12 min.
The term Ki denotes the equilibrium dissociation constant of an inhibitor or competing ligand from its target. Consider `O=C1NCCCN1C1OC[C@@H](O)[C@H](O)[C@@H]1O` (stereo partly specified), for which the Ki at Cytidine deaminase is more than 50 µM.
Same read-out and setting: next, `O=C1NCCCCN1[C@@H]1OC[C@@H](O)[C@@H](O)[C@H]1O`: 6.6 µM.
